Usually IC50 stands for the concentration that inhibits the measured activity by half.

Bounds are passed on as bounds.

The first test deals with human VPS34 (Homo sapiens (Human), UniProt Q8NEB9). Description: Human VPS34 enzyme assay (Adapta TR-FRET ADP detection). Also noted: Percent Inhibition: dose or concentration left out as unconfirmed. The test is classed as biochemical.
Chain of human VPS34 (Q8NEB9 whole entry): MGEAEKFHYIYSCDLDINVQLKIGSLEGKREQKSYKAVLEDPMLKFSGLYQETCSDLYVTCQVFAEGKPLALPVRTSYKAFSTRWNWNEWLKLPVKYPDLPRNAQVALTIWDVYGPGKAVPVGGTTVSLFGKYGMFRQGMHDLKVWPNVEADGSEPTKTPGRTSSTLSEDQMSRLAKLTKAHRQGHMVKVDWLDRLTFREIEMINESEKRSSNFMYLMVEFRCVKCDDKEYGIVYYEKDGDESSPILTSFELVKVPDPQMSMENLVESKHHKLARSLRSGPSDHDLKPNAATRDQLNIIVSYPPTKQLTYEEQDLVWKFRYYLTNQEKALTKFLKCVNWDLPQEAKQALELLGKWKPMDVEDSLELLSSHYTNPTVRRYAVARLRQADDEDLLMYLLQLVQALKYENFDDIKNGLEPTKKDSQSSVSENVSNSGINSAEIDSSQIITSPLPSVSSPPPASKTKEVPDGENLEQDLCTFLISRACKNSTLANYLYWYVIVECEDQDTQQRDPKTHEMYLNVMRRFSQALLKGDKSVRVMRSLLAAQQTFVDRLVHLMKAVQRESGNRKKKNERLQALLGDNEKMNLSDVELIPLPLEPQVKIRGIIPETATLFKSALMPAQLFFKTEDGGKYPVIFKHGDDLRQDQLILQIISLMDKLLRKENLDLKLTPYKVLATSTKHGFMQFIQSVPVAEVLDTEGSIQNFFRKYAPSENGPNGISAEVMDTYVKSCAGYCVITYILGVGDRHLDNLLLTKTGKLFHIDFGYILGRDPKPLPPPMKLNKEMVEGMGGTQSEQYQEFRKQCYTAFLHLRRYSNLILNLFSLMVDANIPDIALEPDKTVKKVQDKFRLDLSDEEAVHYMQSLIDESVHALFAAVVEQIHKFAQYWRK
Settings: not given
In general terms: Time-resolved FRET reads energy transfer from a long-lived donor to a nearby acceptor.
As to `CC(=O)Nc1cc(-c2cnc(Cl)c(S(=O)(=O)N[C@H](CO)c3ccccc3)c2)ccn1` [Compound I-330, N-(6-chloro-5-{[(1S)-2-hydroxy-1-phenylethyl]sulfamoyl}-3,4′-bipyridin-2′-yl)acetamide], the “Percent Inhibition” value is over 99%.

Still in this test, the particulars now being: IC50 range class.
`Cc1ncc(-c2ccnc(NC(=O)C3CCC3)c2)cc1NS(=O)(=O)c1ccc(F)cc1F` [Compound I-305, N-(5-{[(2,4-difluorophenyl)sulfonyl]amino}-6-methyl-3,4′-bipyridin-2′-yl)cyclobutanecarboxamide] returned an IC50 of 10 to 50 nM.
Consider `Cc1nccc(Nc2cc(-c3cnc(N(C)C)c(C(=O)N(C)C45CC(C4)C5)c3)ccn2)n1` [Compound I-306, N-(bicyclo[1.1.1]pent-1-yl)-6-(dimethylamino)-N-methyl-2′-((2-methylpyrimidin-4-yl)amino)-3,4′-bipyridine-5-carboxamide], for which the IC50 fell in the range of 10 to 50 nM.
The compound `Cc1ccc(Nc2cc(-c3cnc(C)c(NS(=O)(=O)c4ccc(F)cc4F)c3)ccn2)nn1` [Compound I-307, 2,4-difluoro-N-{6-methyl-2′-[(6-methylpyridazin-3-yl)amino]-3,4′-bipyridin-5-yl}benzenesulfonamide] came in with an IC50 of 10 to 50 nM.
Turning to `Cc1c(-c2ccnc(Nc3ccncn3)c2)cnc(Cl)c1NS(=O)(=O)c1ccccc1` [Compound I-309, N-[6-chloro-4-methyl-2′-(pyrimidin-4-ylamino)-3,4′-bipyridin-5-yl]benzenesulfonamide], the IC50 was under 10 nM.
Still for that read-out and setting: for `Cc1ncc(-c2ccnc(Nc3cnccn3)c2)cc1NS(=O)(=O)c1ccc(F)cc1F` [Compound I-310, 2,4-difluoro-N-[6-methyl-2′-(pyrazin-2-ylamino)-3,4′-bipyridin-5-yl]benzenesulfonamide] the value was under 10 nM; for `Cc1ncc(-c2ccnc(NC(=O)C3CC3)c2)cc1NS(=O)(=O)N(C)C` [Compound I-311, N-{5-[(dimethylsulfamoyl)amino]-6-methyl-3,4′-bipyridin-2′-yl)cyclopropanecarboxamide], under 10 nM; for `CC(=O)Nc1cc(-c2cnc(Cl)c(NS(=O)(=O)c3ccccc3)c2C)ccn1` [Compound I-312, N-{6-chloro-4-methyl-5-[(phenylsulfonyl)amino]-3,4′-bipyridin-2′-yl}acetamide], 10 to 50 nM.
Same read-out and setting: with `Cc1ncc(-c2ccnc(NC(=O)N3CCCC3)c2)cc1NS(=O)(=O)c1ccc(F)cc1F` [Compound I-313, N-(5-{[(2,4-difluorophenyl)sulfonyl]amino}-6-methyl-3,4′-bipyridin-2′-yl)pyrrolidine-1-carboxamide] the figure was 10 to 50 nM.
Still for that read-out and setting: with `Cc1nccc(Nc2cc(-c3cnc(Cl)c(N(C)C)c3C)ccn2)n1` [Compound I-314, 6-chloro-N5,N5,4-trimethyl-N2′-(2-methylpyrimidin-4-yl)-3,4′-bipyridine-2′,5-diamine] the figure was 10 to 50 nM; with `Cc1nccc(Nc2cc(-c3cnc(C)c(C(=O)N4CCCC4)c3)ccn2)n1` [Compound I-315, {6-methyl-2′-[(2-methylpyrimidin-4-yl)amino]-3,4′-bipyridin-5-yl}(pyrrolidin-1-yl)methanone], 10 to 50 nM.
For `CC(=O)Nc1cc(-c2cncc(S(=O)(=O)NC3C4CC5CC(C4)CC3C5)c2)ccn1` (stereo not drawn) [Compound I-318, N-[5-(adamantan-2-ylsulfamoyl)-3,4′-bipyridin-2′-yl]acetamide], the IC50 was 10 to 50 nM.
In turn, `CC(=O)Nc1cc(-c2cnc(C)c(N(CCO)S(=O)(=O)c3ccc(F)cc3F)c2)ccn1` [Compound I-319, N-(5-{[(2,4-difluorophenyl)sulfonyl](2-hydroxyethyl)amino}-6-methyl-3,4′-bipyridin-2′-yl]acetamide] gave an IC50 of over 100 nM.
The same measure, in the same setting: with `CC(=O)Nc1cc(-c2cncc(N3CCCCS3(=O)=O)c2)ccn1` [Compound I-320, N-[5-(1,1-dioxido-1,2-thiazinan-2-yl)-3,4′-bipyridin-2′-yl]acetamide] the figure was 10 to 50 nM; with `CC(=O)Nc1cc(-c2cncc(S(=O)(=O)NCc3ccccc3)c2)ccn1` [Compound I-321, N-[5-(benzylsulfamoyl)-3,4′-bipyridin-2′-yl]acetamide], 50 to 100 nM.
Same read-out and setting: for `CC(=O)Nc1cc(-c2cnc(C)c(NS(=O)(=O)c3cccc(F)c3Cl)c2)ccn1` [Compound I-322, N-(5-{[(2-chloro-3-fluorophenyl)sulfonyl]amino}-6-methyl-3,4′-bipyridin-2′-yl)acetamide] the value was 10 to 50 nM.
Still for that read-out and setting: with `CC(=O)Nc1cc(-c2cnc(N)c(N3CCCN(C)S3(=O)=O)c2)ccn1` [Compound I-323, N-[6-amino-5-(6-methyl-1,1-dioxido-1,2,6-thiadiazinan-2-yl)-3,4′-bipyridin-2′-yl]acetamide] the figure was 10 to 50 nM; with `Cc1ncc(-c2ccnc(NC(=O)OCC3(C)COC3)c2)cc1NS(=O)(=O)c1ccc(F)cc1F` [Compound I-324, (3-methyloxetan-3-yl)methyl (5-{[(2,4-difluorophenyl)sulfonyl]amino}-6-methyl-3,4′-bipyridin-2′-yl)carbamate], 10 to 50 nM.
For the compound `CNC1CN(c2cc(-c3ccnc(NC(C)=O)c3)cnc2C)S(=O)(=O)C1` (stereo not drawn) [Compound I-325, N-{6-methyl-5-[4-(methylamino)-1,1-dioxidoisothiazolidin-2-yl]-3,4′-bipyridin-2′-yl}acetamide], the IC50 is 10 to 50 nM.
The same measure, in the same setting: for `Cc1ncc(-c2ccnc(NC(=O)OCc3ccn(C)n3)c2)cc1NS(=O)(=O)c1ccc(F)cc1F` [Compound I-326, (1-methyl-1H-pyrazol-3-yl)methyl (5-{[(2,4-difluorophenyl)sulfonyl]amino}-6-methyl-3,4′-bipyridin-2′-yl)carbamate] the value was under 10 nM.
The same measure, in the same setting: for `COc1ncc(-c2ccnc(NC(C)=O)c2)cc1S(=O)(=O)Nc1cccc(C(F)(F)F)c1` [Compound I-329, N-(6-methoxy-5-{[3-(trifluoromethyl)phenyl]sulfamoyl}-3,4′-bipyridin-2′-yl)acetamide] the value was 10 to 50 nM.
Take `CC(=O)Nc1cc(-c2cnc(Cl)c(S(=O)(=O)N[C@H](CO)c3ccccc3)c2)ccn1` [Compound I-330, N-(6-chloro-5-{[(1S)-2-hydroxy-1-phenylethyl]sulfamoyl}-3,4′-bipyridin-2′-yl)acetamide]: the IC50 was over 100 nM.
As to `COc1ncc(-c2ccnc(NC(C)=O)c2)cc1N(C)C(=O)c1ccc(F)cc1F` [Compound I-331, N-(2′-acetamido-6-methoxy-3,4′-bipyridin-5-yl)-2,4-difluoro-N-methylbenzamide], the IC50 is over 100 nM.
The same measure, in the same setting: for `COC(=O)Nc1cc(-c2cncc(S(=O)(=O)N3CCOCC3)c2)ccn1` [Compound I-332, methyl [5-(morpholin-4-ylsulfonyl)-3,4′-bipyridin-2′-yl]carbamate] the value was 10 to 50 nM.
Compound `CC(=O)Nc1cc(-c2cnc(Cl)c(NS(=O)(=O)c3ccc(C(F)(F)F)cc3Cl)c2C)ccn1` [Compound I-333, N-(6-chloro-5-(2-chloro-4-(trifluoromethyl)phenylsulfonamido)-4-methyl-[3,4′-bipyridin]-2′-yl)acetamide] gave an IC50 of 10 to 50 nM.
Still for that read-out and setting: with `CC(=O)Nc1cc(-c2cnc3c(c2)S(=O)(=O)N[C@@H](c2ccccc2)CO3)ccn1` [Compound I-334, (S)-N-[4-(1,1-dioxido-3-phenyl-3,4-dihydro-2H-pyrido[2,3-b][1,4,5]oxathiazepin-8-yl)pyridin-2-yl]acetamide] the figure was over 100 nM; with `CC(=O)Nc1cc(-c2cnc(Cl)c(NS(=O)(=O)c3ccc(C4CC4)cc3F)c2C)ccn1` [Compound I-335, N-(6-chloro-5-{[(4-cyclopropyl-2-fluorophenyl)sulfonyl]amino}-4-methyl-3,4′-bipyridin-2′-yl)acetamide], 10 to 50 nM.

(Values after patent US9751854B2 (Millennium Pharmaceuticals, Inc., priority 2014, dated 2017).)
